Test results published in ChEMBL document CHEMBL3826966, “A chromatography-free isolation of rohitukine from leaves of Dysoxylum binectariferum: Evaluation for in vitro cytotoxicity, Cdk inhibition and physicochemical properties” (Bioorg Med Chem Lett, 2016).

What was measured:
[1] = target: Ribosomal protein S6 kinase alpha-5 (Homo sapiens) (UniProt O75582); test: Inhibition of human MSK1 (2 to 802 residues) assessed as remaining enzyme activity at 50 uM after 30 mins by 33P-ATP filter-binding assay
Sequence of Ribosomal protein S6 kinase alpha-5 (Homo sapiens) (O75582 whole entry, looked up, the tested form may be a part): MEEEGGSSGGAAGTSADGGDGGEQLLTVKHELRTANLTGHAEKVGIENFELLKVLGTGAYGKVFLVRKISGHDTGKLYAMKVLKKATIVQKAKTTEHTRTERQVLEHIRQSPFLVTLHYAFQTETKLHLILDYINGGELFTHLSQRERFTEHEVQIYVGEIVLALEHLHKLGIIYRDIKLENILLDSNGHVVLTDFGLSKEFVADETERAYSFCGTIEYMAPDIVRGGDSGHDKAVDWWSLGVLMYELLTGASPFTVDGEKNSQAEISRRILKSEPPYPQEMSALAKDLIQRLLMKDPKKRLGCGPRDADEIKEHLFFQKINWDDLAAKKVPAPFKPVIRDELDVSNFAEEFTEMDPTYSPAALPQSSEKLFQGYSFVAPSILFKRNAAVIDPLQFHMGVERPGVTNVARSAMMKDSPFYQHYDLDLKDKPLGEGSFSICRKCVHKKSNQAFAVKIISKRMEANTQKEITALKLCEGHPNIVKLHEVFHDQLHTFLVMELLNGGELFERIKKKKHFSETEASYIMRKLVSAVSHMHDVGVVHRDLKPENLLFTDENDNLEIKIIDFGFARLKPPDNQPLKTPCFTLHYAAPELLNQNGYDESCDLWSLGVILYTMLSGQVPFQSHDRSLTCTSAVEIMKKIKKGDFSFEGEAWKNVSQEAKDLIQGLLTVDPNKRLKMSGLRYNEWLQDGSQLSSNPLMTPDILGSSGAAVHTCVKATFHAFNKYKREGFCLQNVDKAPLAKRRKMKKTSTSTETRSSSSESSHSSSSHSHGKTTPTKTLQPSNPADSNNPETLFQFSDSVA

[2] = target: Calcium/calmodulin-dependent protein kinase kinase 2 (Homo sapiens) (UniProt Q96RR4); test: Inhibition of human CAMKKbeta (1 to 541 residues) assessed as remaining enzyme activity at 50 uM after 30 mins by 33P-ATP filter-binding assay
[3] = target: Serine/threonine-protein kinase SIK3 (Homo sapiens) (UniProt Q9Y2K2); test: Inhibition of human SIK3 (2 to 1369 residues) assessed as remaining enzyme activity at 50 uM after 30 mins by 33P-ATP filter-binding assay
[4] = target: Dual specificity tyrosine-phosphorylation-regulated kinase 2 (Homo sapiens) (UniProt Q92630); test: Inhibition of human DYRK2 (3 to 528 residues) assessed as remaining enzyme activity at 50 uM after 30 mins by 33P-ATP filter-binding assay
Sequence of Dual specificity tyrosine-phosphorylation-regulated kinase 2 (Homo sapiens) (Q92630 whole entry, the tested form may be a part): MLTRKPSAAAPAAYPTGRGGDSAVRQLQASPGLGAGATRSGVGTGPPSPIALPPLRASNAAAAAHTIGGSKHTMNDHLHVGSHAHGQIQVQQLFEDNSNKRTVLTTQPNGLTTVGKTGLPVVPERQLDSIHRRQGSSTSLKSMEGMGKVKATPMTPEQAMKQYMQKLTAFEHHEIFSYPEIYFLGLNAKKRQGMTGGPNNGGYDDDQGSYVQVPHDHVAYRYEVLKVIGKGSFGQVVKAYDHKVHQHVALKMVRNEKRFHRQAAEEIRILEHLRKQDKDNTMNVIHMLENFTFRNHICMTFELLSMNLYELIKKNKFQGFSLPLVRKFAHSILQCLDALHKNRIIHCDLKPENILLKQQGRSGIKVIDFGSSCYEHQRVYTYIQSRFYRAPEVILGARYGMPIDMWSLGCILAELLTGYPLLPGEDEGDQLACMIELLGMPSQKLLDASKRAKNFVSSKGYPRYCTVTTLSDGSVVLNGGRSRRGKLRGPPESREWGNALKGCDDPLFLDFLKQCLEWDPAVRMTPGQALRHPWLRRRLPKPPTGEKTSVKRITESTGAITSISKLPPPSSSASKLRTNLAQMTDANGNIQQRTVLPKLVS

[5] = target: Serine/threonine-protein kinase pim-3 (Homo sapiens) (UniProt Q86V86); test: Inhibition of human PIM3 (2 to 326 residues) assessed as remaining enzyme activity at 50 uM after 30 mins by 33P-ATP filter-binding assay
[6] = target: Homeodomain-interacting protein kinase 2 (Homo sapiens) (UniProt Q9H2X6); test: Inhibition of human HIPK2 (165 to 564 residues) assessed as remaining enzyme activity at 50 uM after 30 mins by 33P-ATP filter-binding assay
[7] = target: Misshapen-like kinase 1 (Homo sapiens) (UniProt Q8N4C8); test: Inhibition of human MINK1 (1 to 320 residues) assessed as remaining enzyme activity at 50 uM after 30 mins by 33P-ATP filter-binding assay
[8] = target: Receptor-interacting serine/threonine-protein kinase 2 (Homo sapiens) (UniProt O43353); test: Inhibition of human RIPK2 (2 to 311 residues) assessed as remaining enzyme activity at 50 uM after 30 mins by 33P-ATP filter-binding assay
Sequence of Receptor-interacting serine/threonine-protein kinase 2 (Homo sapiens) (O43353 whole entry, the tested form may be a part): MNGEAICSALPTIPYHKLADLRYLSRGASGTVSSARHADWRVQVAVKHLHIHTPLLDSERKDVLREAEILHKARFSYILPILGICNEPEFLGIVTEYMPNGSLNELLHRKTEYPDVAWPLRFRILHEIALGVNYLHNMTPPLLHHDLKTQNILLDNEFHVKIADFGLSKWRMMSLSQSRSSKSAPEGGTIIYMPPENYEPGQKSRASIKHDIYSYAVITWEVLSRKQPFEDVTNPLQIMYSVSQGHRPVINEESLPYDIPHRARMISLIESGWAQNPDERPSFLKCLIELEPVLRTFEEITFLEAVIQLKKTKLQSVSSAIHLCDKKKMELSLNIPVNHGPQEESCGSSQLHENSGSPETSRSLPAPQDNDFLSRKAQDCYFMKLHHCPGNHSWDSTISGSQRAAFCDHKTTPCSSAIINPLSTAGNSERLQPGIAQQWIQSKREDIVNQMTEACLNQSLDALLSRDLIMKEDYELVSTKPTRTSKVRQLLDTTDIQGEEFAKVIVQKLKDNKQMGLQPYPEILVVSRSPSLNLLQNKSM

[9] = target: Tyrosine-protein kinase CSK (Homo sapiens) (UniProt P41240); test: Inhibition of human CSK (1 to 450 residues) assessed as remaining enzyme activity at 50 uM after 30 mins by 33P-ATP filter-binding assay
Sequence of Tyrosine-protein kinase CSK (Homo sapiens) (P41240 2-450 limits assumed): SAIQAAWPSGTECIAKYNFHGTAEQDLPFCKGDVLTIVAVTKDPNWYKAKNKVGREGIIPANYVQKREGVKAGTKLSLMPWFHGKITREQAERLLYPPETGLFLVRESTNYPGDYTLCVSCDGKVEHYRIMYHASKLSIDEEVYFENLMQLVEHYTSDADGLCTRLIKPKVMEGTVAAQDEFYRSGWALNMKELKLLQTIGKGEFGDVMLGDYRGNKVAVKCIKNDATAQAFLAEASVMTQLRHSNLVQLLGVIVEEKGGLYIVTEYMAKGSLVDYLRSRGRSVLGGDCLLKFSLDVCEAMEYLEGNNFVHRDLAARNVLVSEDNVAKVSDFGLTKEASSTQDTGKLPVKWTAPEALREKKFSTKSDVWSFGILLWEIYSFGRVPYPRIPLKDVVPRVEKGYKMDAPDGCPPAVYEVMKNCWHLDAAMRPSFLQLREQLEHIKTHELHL

[10] = target: Tyrosine-protein kinase JAK2 (Homo sapiens) (UniProt O60674); test: Inhibition of human JAK2 assessed as remaining enzyme activity at 50 uM after 30 mins by 33P-ATP filter-binding assay
[11] = target: Ephrin type-B receptor 2 (Homo sapiens) (UniProt P29323); test: Inhibition of human EPHB2 (560 to 987 residues) assessed as remaining enzyme activity at 50 uM after 30 mins by 33P-ATP filter-binding assay
Sequence of Ephrin type-B receptor 2 (Homo sapiens) (P29323 whole entry, the tested form may be a part): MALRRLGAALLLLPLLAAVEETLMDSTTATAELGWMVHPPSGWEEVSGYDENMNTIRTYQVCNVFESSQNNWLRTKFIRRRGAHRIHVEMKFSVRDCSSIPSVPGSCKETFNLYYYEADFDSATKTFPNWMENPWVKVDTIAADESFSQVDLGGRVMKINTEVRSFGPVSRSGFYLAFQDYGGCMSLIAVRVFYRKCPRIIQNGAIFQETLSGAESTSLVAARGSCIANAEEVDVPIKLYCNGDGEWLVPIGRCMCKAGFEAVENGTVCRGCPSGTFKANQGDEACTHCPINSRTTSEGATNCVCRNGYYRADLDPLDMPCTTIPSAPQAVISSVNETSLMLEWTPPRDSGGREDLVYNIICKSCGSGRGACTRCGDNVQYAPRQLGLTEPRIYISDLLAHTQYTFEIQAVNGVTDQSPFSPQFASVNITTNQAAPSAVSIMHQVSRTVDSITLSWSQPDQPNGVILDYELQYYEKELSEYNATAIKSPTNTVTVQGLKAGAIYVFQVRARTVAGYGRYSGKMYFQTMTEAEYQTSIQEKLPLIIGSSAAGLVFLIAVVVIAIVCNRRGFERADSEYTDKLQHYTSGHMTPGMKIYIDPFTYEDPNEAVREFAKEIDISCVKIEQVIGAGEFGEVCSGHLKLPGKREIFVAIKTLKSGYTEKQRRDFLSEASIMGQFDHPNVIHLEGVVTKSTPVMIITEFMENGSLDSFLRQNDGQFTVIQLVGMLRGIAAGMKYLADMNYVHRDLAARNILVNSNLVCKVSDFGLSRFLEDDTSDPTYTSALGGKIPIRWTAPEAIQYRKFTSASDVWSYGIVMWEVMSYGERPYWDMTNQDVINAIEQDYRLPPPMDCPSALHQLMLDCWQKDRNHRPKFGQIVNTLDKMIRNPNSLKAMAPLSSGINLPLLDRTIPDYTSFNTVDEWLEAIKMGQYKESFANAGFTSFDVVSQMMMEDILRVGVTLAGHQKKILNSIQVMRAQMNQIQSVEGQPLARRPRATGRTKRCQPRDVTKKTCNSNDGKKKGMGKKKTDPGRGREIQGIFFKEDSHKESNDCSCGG

[12] = target: Receptor tyrosine-protein kinase erbB-4 (Homo sapiens) (UniProt Q15303); test: Inhibition of human HER4 (706 to 991 residues) assessed as remaining enzyme activity at 50 uM after 30 mins by 33P-ATP filter-binding assay
[13] = target: High affinity nerve growth factor receptor (Homo sapiens) (UniProt P04629); test: Inhibition of human TRKA (441 to 760 residues) assessed as remaining enzyme activity at 50 uM after 30 mins by 33P-ATP filter-binding assay
Sequence of High affinity nerve growth factor receptor (Homo sapiens) (P04629 33-796 limits assumed): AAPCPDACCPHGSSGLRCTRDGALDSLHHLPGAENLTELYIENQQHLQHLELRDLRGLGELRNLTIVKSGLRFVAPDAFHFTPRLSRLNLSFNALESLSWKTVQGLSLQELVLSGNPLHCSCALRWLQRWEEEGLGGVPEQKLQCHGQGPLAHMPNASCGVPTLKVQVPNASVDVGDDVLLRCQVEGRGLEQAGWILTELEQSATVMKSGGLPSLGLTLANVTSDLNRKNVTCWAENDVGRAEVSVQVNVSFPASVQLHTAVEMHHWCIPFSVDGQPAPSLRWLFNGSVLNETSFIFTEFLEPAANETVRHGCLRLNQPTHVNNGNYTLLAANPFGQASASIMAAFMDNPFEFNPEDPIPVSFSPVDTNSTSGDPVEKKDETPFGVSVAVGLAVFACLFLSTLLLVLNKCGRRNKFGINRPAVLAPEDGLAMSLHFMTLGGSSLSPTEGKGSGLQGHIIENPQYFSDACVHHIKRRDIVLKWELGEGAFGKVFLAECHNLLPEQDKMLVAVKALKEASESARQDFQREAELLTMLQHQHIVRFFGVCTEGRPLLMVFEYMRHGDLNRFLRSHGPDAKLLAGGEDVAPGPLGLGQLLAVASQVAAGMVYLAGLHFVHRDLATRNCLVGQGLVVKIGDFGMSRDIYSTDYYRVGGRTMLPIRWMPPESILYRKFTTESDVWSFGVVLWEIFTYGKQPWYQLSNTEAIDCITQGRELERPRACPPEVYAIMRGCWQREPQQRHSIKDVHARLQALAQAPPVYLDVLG

[14] = target: Discoidin domain-containing receptor 2 (Homo sapiens) (UniProt Q16832); test: Inhibition of human DDR2 (467 to 854 residues) assessed as remaining enzyme activity at 50 uM after 30 mins by 33P-ATP filter-binding assay
[15] = target: Vascular endothelial growth factor receptor (Homo sapiens) (UniProt P17948+P35916+P35968); test: Inhibition of human VEGFR assessed as remaining enzyme activity at 50 uM after 30 mins by 33P-ATP filter-binding assay; assay type: protein assay
HL-60 = test: Induction of apoptosis in human HL60 cells assessed as apoptotic cells at 10 uM (reference value: 1 %); assay type: functional
[16] = Cell cycle arrest in human HL60 cells assessed as accumulation at G2 phase at 10 uM (reference value: 5 %); assay type: functional, cell-based; conditions: HL-60
[17] = Cell cycle arrest in human HL60 cells assessed as accumulation at S phase at 1 uM (reference value: 36 %); assay type: functional, cell-based; conditions: HL-60
[18] = Stability in pH 1.2 buffer at 120 ug/ml after 8 hrs by RP-HPLC analysis; assay type: physicochemical; conditions: pH 1.2, 8 h
[19] = Stability in pH 4 buffer at 120 ug/ml after 8 hrs by RP-HPLC analysis; assay type: physicochemical; conditions: pH 4, 8 h
[20] = target: Aurora kinase A (Homo sapiens) (UniProt O14965); test: Inhibition of human Aurora A (2 to 403 residues) assessed as remaining enzyme activity at 50 uM after 30 mins by 33P-ATP filter-binding assay
Sequence of Aurora kinase A (Homo sapiens) (O14965 whole entry, the tested form may be a part): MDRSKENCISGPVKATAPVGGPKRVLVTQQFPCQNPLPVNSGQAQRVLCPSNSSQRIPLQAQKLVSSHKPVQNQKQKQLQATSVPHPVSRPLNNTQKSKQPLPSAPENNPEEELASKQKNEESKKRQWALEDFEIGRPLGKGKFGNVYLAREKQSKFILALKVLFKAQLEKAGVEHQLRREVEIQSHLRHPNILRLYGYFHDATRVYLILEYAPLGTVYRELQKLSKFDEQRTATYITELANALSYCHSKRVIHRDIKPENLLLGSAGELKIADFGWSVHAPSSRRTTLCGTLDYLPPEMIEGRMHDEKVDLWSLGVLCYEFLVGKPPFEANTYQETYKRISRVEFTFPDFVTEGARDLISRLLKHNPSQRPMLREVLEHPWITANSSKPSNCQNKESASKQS

[21] = target: MAP kinase-activated protein kinase 2 (Homo sapiens) (UniProt P49137); test: Inhibition of human MAPKAPK2 assessed as remaining enzyme activity at 50 uM after 30 mins by 33P-ATP filter-binding assay
Sequence of MAP kinase-activated protein kinase 2 (Homo sapiens) (P49137 whole entry, looked up): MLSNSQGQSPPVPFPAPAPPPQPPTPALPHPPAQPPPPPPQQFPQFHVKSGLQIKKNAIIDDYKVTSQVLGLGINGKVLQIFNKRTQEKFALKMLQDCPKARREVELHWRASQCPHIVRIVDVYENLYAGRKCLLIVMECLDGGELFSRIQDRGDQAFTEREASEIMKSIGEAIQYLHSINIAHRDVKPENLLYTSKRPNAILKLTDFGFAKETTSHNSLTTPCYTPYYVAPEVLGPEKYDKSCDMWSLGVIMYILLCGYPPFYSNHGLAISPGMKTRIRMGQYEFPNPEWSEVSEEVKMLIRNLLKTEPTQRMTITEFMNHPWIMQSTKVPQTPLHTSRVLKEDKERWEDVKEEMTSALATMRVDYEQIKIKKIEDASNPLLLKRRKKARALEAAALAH

[22] = Cytotoxicity against human THP1 cells assessed as cell growth inhibition after 48 hrs by MTT assay; assay type: functional; conditions: THP-1, 48 h
[23] = Cytotoxicity against human MIAPaCa2 cells assessed as cell growth inhibition after 48 hrs by MTT assay; assay type: functional; conditions: MIA PaCa-2, 48 h
LNCaP = test: Cytotoxicity against human LNCAP cells assessed as cell growth inhibition after 48 hrs by MTT assay; assay type: functional
[24] = Cytotoxicity against human SF539 cells assessed as cell growth inhibition after 48 hrs by MTT assay; assay type: functional; conditions: SF-539, 48 h

Activity [1]: 30% | Activity [2]: 18% | Activity [3]: 28% | Activity [4]: 84% | Activity [5]: 12% | Activity [6]: 76% | Activity [7]: 73% | Activity [8]: 63% | Activity [9]: 79% | Activity [10]: 41% | Activity [11]: 81% | Activity [12]: 79% | Activity [13]: 89% | Activity [14]: 79% | Activity [15]: 18% | Stability [18]: Stable | Stability [19]: Stable | Activity [20]: 91% | Activity [21]: 52%
SMILES: Cc1cc(=O)c2c(O)cc(O)c([C@H]3CCN(C)C[C@H]3O)c2o1 [ROHITUKINE]
Activity (HL-60): 10% | Activity [16]: 4% | Activity [17]: 50% | GI50 [22]: 28 µM | GI50 [23]: 19 µM | GI50 (LNCaP): 30 µM | GI50 [24]: 30 µM
